According to PMC10893082, “Development and Optimization of Andrographis paniculata Extract-Loaded Self-Microemulsifying Drug Delivery System Using Experimental Design Model” (Pharmaceutics, 2024):
Values after ≈ are worked out from the molar mass of the structure shown.

What was measured:
[1] = parameters: method as in ref 53, Kim et al., (2019); conditions: Kim et al., (2019), cited from earlier work
[2] = test system: SARS-CoV-2; parameters: method as in ref 6, Sa-ngiamsuntorn et al., (2021); conditions: Sa-ngiamsuntorn et al., (2021); cited from earlier work
[3] = physchem; format: physicochemical
Procedure: To find the solubility of AGP in the optimized SMEDDS (highest amount of AGP that can be loaded into the optimized SMEDDS), an excess amount of A. paniculata extract was added to the 1.5 mL of the optimized SMEDDS and shaken at 37 °C 120 rpm for 72 h in an incubator shaker. Then, the AGPE-loaded optimized SMEDDS was centrifuged at 14,000 rpm for 30 min to separate the extract powder from the AGP-extracted SMEDDS. The supernatant was collected and diluted with methanol before the analysis of AGP content using HPLC. HPLC analysis with UV detection was used to quantify the content of AGP. An Agilent® 1200 (Santa Clara, CA, USA) with an Agilent® ZORBAX Eclipse XDB-C18 (4.6 × 150 mm, 5 µm) column was used. The mobile phase was methanol:water (65:35), and the injection volume was 20 µL. The flow rate was set at 0.8 mL/min, and the detection wavelength was 228 nm. The standard curve of AGP was constructed, ranging from 5 to 200 µg/mL.

Row | Structure (SMILES) | Time within which dissolution was completed ([1]; SMEDDS formulation) [min] | Drug powder dissolved ([1]; drug powder, after 60 min) [%] | anti-SARS-CoV-2 activity, IC50 [2] | solubility [3] [mg/mL] | solubility at 72 h ([3]; 37 °C, thermodynamic from solid) [mg/mL]
1 | CN(Cc1cnc2nc(N)nc(N)c2n1)c1ccc(C(=O)N[C@@H](CCC(=O)O)C(=O)O)cc1 [methotrexate] | ≤ 20 | 53 | – | – | –
2 | C=C1CC[C@@H]2[C@](C)(CO)[C@H](O)CC[C@@]2(C)[C@@H]1C/C=C1/C(=O)OC[C@H]1O [AGP, andrographolide] | – | – | equivalent to the antiviral agent remdesivir | ~42 (≈ 120 mM) | ~38 (≈ 108 mM)
